Reference: patent publication US20140271734A1, “BILE ACID RECYCLING INHIBITORS FOR TREATMENT OF BARRETT'S ESOPHAGUS AND GASTROESOPHAGEAL REFLUX DISEASE” (LUMENA PHARMACEUTICALS, INC., priority 2013, published 2014)

How the values were obtained:
serum bile acids = experiment: Fasting and post-prandial serum bile acids in children and adolescents on LUM001; assay type: in vivo, human
Method: LUM001 has been administered to forty patients under the age of 18 years old. […] The drug was administered once-a-day (QD) in the morning for fourteen days. […] These doses are similar to those using to treat patients with Barrett's esophagus or GERD.
The efficacy of LUM001 was determined by measuring total serum bile acids after eight days of dosing in children and adolescents under the age of eighteen. Thirty minutes before the next drug administration, at approximately 8 am in the morning, serum bile acid levels were measured. The child had refrained from food for 12 hours prior to this sample thus providing a fasted level of serum bile acid. After breakfast, serum bile acids were measured for up to the next 4 hours (8 am to noon) and the peak serum bile acid concentration noted.

[1] = tested on: postprandial serum bile acids AUC; experiment: Inhibition of the postprandial rise in SBA, LUM001 compared to cholestyramine; assay type: in vivo, dogs
Method: LUM001 was dissolved in 0.2% Tween 80 at concentrations that required the administration of 0.2 ml dosing solution/kg of body weight at each dose tested. Cholestyramine was suspended in water at concentrations that required the administration of 2.5 ml/kg (500 mg/kg) and 1 ml/kg (200 mg/kg). The appropriate volume of solution formulation for each animal was placed into a gelatin capsule, Torpac Inc., size 13, Batch 594, East Hanover, N.J. and administered per os. Test compounds were administered as single oral doses to groups of dogs, 3 to 9 dogs per group at varying dosages. LUM001 and cholestyramine were administered in solution 30 minutes prior to feeding and blood samples collected at 30-minute intervals for four hours after feeding. LUM001 was given at 0, 0.02, 0.05, 0.2, 0.6, 2, 5 or 15 mg/kg. Cholestyramine was administered at 200 or 500 mg/kg. […] No dog received any one compound dosage more than once. SBA was measured by an enzymatic assay. SBA values are expressed as μg of total bile acids/ml of serum.

fecal bile acid (FBA) = experiment: Fecal bile acids in hamsters, LUM001 for 28 days; assay type: in vivo, golden Syrian hamsters; settings: for Weight-Adjusted Fecal Total Bile Acids Excretion: n=10
Method: Male golden Syrian hamsters (126-147 gm) were obtained from Charles Rivers Laboratories and were single housed in a constant temperature environment with alternating 12-hour light and dark cycles. Hamsters were fed Teklad 7001 rodent meal chow at libitum for two weeks before the experimental studies began and switched to Teklad 7001 rodent meal chow supplemented with 0.24% cholesterol on day one of the 28-day experiment. LUM001 was dissolved in an aqueous solution of 0.2% (w/v) Tween 80 and administered Q.D. by intragastric gavage between 9 a.m. and 10 a.m. each morning using a syringe fitted with a flexible feeding tube. Blood samples were collected after 14- and 28-day treatment periods by orbital sinus and cardiac puncture, respectively. Hamsters were anesthetized but not fasted prior to blood collections. Fecal samples were collected during a 48-hour period at the end of days 14 and 28 (i.e., days 13-14 and 27-28, respectively).
Fecal samples were collected to determine the fecal bile acid (FBA) concentration for each animal. The separate collections from each hamster were weighed and homogenized with distilled water with a Polytron tissue processor (Brinkman Instruments) to generate a homogeneous slurry. Fecal homogenate (1.4 grams) was extracted with 2.6 mL of a solution containing tertiary butanol:distilled water in the ratio of 2:0.6 [final concentration of 50% (v/v) tertiary butanol] for 45 minutes in a 37° C. water bath and subjected to centrifugation for 13 minutes at 2000×g. The concentration of bile acids (mmolesgram homogenate) was determined using a 96-well enzymatic assay system (6, 7). Aliquots of the fecal extracts (20 μl) were added to two sets of triplicate wells in a 96-well assay plate. A standardized sodium taurocholate solution and a standardized fecal extract solution (previously made from pooled samples and characterized for its bile acid concentration) were also analyzed for assay quality control. Aliquots of 90 mM sodium taurocholate ([…]), were serially diluted to generate a standard curve containing 30-540 nmoles/well. A […] aliquot of reaction mixture containing 1M hydrazine hydrate, 0.1 M pyrophosphate and 0.46 mg/ml NAD was added to each well. Subsequently, a […] aliquot of either 3a-hydroxysteroid dehydrogenase enzyme (HSD; 0.8 units/ml) or assay buffer (0.1 M sodium pyrophosphate) was then added to one each of the two sets of triplicates. Following 60 minutes of incubation at room temperature, the optical density at 340 nm was measured and the mean of each set of triplicate samples was calculated. The difference in optical density±HSD enzyme was used to determine the bile acid concentration (mM) of each sample based on the sodium taurocholate standard curve. The bile acid concentration of the extract (mmolesgram homogenate), the total weight of the fecal homogenate (grams) and the body weight of the hamsters (g) were used to calculate the corresponding FBA concentration in mmoles/day/kg body weight for each animal. All reagents used for the assay were obtained from Sigma Chemical Co., St. Louis, Mo. (HSD—catalog # H-1506; NAD—catalog # N1636; sodium taurocholate—catalog # T-4009).

GLP-2 = GLP-2 in plasma of non-fasted ZDF rats, 2 weeks treatment; assay type: in vivo

| Compound | Decrease of average fasting serum bile acid vs placebo patients (serum bile acids; LUM001 treated patients) [%] | Decrease of average post-prandial peak serum bile acid vs placebo patients (serum bile acids; LUM001 treated patients) [%] | Average post-prandial peak serum bile acid level (serum bile acids; LUM001 treated patients (placebo 11.9)) [µmol/L] | Morning Post-prandial peak serum bile acid (serum bile acids; Patient 304, 1 mg, after eight days of dosing) [µmol/L] | Morning Post-prandial peak serum bile acid (serum bile acids; Patient 308, 1 mg, after eight days of dosing) [µmol/L] | Morning Post-prandial peak serum bile acid (serum bile acids; Patient 309, 1 mg, after eight days of dosing) [µmol/L] | Morning Post-prandial peak serum bile acid (serum bile acids; Patient 401, 2.5 mg, after eight days of dosing) [µmol/L] | Fasting and post-prandial peak levels of serum bile acids (serum bile acids; children and adolescents, after eight days of dosing) | Inhibition of postprandial serum bile acids AUC (0-240 min) compared to cholestyramine ([1]; LUM001 0.02-15 mg/kg vs cholestyramine 200 or 500 mg/kg, single oral doses) | Serum bile acids ([1]; single oral dose 0.02-15 mg/kg 30 minutes prior to feeding) | Weight-Adjusted Fecal Total Bile Acids Excretion, % change from vehicle group (fecal bile acid (FBA); 5 mg/kg/day) | Weight-Adjusted Fecal Total Bile Acids Excretion (fecal bile acid (FBA); 5 mg/kg/day) [µmol/day/kg] | Weight-Adjusted Fecal Total Bile Acids Excretion, % change from vehicle group (fecal bile acid (FBA); 15 mg/kg/day) | Weight-Adjusted Fecal Total Bile Acids Excretion (fecal bile acid (FBA); 15 mg/kg/day) [µmol/day/kg] | Weight-Adjusted Fecal Total Bile Acids Excretion, % change from vehicle group (fecal bile acid (FBA); 50 mg/kg/day) | Weight-Adjusted Fecal Total Bile Acids Excretion (fecal bile acid (FBA); 50 mg/kg/day) [µmol/day/kg] | GLP-2 in plasma (GLP-2) |
| --- | --- | --- | --- | --- | --- | --- | --- | --- | --- | --- | --- | --- | --- | --- | --- | --- | --- |
| CCCCC1(CCCC)CS(=O)(=O)c2ccc(N(C)C)cc2[C@@H](c2ccc(OCc3ccc(C[N+]45CCN(CC4)CC5)cc3)cc2)[C@H]1O [LUM001] | 24 | 23 | 9.2 | 8.4 | 9.3 | 10.0 | 6.8 | generally decrease both the fasting and post-prandial peak levels of serum bile acids | superior inhibition of postprandial serum bile acids AUC, at a lower dose | significantly decreased serum bile acids | (+233) % | 60 | (+267) % | 66 | (+422) % | 94 |  |
| CCCC[C@]1(CC)CS(=O)(=O)c2ccc(N(C)C)cc2[C@@H](c2cccc(NC(=O)N[C@@H]3O[C@H](COS(=O)(=O)[O-])[C@@H](O)[C@H](OCc4ccccc4)[C@H]3O)c2)[C@H]1O.CCO.O.[K+] [LUM002, potassium((2R,3R,4S,5R,6R)-4-benzyloxy-6-{3-[3-((3S,4R,5R)-3-butyl-7-dimethylamino-3-ethyl-4-hydroxy-1,1-dioxo-2,3,4,5-tetrahydro-1H-benzo[b]thiepin-5-yl)-phenyl]-ureido}-3,5-dihydroxy-tetrahydro-pyran-2-ylmethyl)sulphate ethanolate, hydrate] |  |  |  |  |  |  |  |  |  |  |  |  |  |  |  |  | significant elevations in GLP2 at higher doses |
